From US9745325B2, “Fused heterocyclic compound” (Takeda Pharmaceutical Company Limited, priority 2014, dated 2017) come the findings set out here.

The term inhibition denotes the drop in the measured response relative to a control, in per cent.

Assay [1] relates to human multiple myeloma RPMI8226 cells. Briefly: Inhibitory activity against human multiple myeloma RPMI8226 cell growth (CellTiter-Glo). It counts as cell-based. The following applies: 1 μM test compound, cultured for 8 days; for inhibition at 1 µM: Homo sapiens, RPMI-8226, 192 h, read-out: Percent inhibition of RPMI8226 cell growth (%). On the procedure: The compound of the present invention was evaluated for its inhibitory activity against human multiple myeloma RPMI8226 cell growth by the following method.
A suspension of human multiple myeloma RPMI8226 cells (purchased from the Health Protection Agency) was inoculated at 40 μL (300 cells/well) to a 384-well plate and cultured at 37° C. for 1 day in a 5% CO2 incubator. After the culture, each test compound solution was added thereto at a test concentration of 1 μM using TECAN D300, and the cells were further cultured for 8 days. After the culture, CellTiter-Glo™ Luminescent Cell Viability Assay reagent (Promega) was added at 40 μL/well to a 384-well plate, and the amount of luminescence was measured using a luminometer. Inhibitory activity against human multiple myeloma RPMI8226 cell growth (percent inhibition (%)) of the test compound was calculated according to the following formula, which is based on the hypothesis that the amount of residual ATP reflects the number of cells. In this formula, 100% control represents the amount of luminescence from a well with only 0.1% DMSO added. Percent inhibition (%)=(1−(amount of luminescence of the test compound)÷(100% control))×100

The target of assay [2] is T1, CDK8/CycC (Homo sapiens, UniProt P49336).
T1 construct: purchased Carna Biosciences
Briefly: CDK8 inhibitory activity (Kinase Tracer-236 / Eu-anti-GST fluorescence assay). It counts as binding. Also on record: Percent inhibition of CDK8 activity (%): concentration or dose not given beside the values. The following applies: test compound concentration given as '1 1.1.1\4' [sic]. On the procedure:
(§1) The compound of the present invention was evaluated for its CDK8 inhibitory activity and CDK19 inhibitory activity by the following method. […] The primary diluted solution was dispensed in the amount of 2 μL/well to a 384-well plate, and then, a mixed solution of Eu^3+ Cryptate conjugated mouse monoclonal antibody anti-glutathione S-transferase (Cisbio) diluted 267-fold with an assay buffer and 60 nM Kinase Tracer-236 (Life technologies) was added thereto at 2 μL/well. […] After the addition, the plate was left standing at room temperature for 1 hour, and then, the fluorescence intensity (excitation wavelength 320 nm, fluorescence wavelength 615 nm, 665 nm, delay time 50 μsec) was measured using ann EnVision plate reader (PerkinElmer). The percent inhibition of CDK8 or CDK19 activity by the test compound can be calculated according to the following formula, wherein the fluorescence intensity of a reaction solution in the absence of compound is defined as the control, and the fluorescence intensity of a reaction solution in the presence of 10 μM of control compound is defined as the blank.

The target in assay [3] is T2, CDC2L6/CycC (CDK19) (Homo sapiens, UniProt Q9BWU1).
T2 construct: purchased Carna Biosciences Inc
Briefly: CDK19 inhibitory activity (Kinase Tracer-236 / Eu-anti-GST fluorescence assay). It counts as binding. Also on record: Percent inhibition of CDK19 activity (%): concentration or dose not given beside the values. The following applies: test compound concentration given as '1 1.1.1\4' [sic]. The method, then: as §1

The structures appear in SMILES notation.

T2 sequence (Q9BWU1 whole entry): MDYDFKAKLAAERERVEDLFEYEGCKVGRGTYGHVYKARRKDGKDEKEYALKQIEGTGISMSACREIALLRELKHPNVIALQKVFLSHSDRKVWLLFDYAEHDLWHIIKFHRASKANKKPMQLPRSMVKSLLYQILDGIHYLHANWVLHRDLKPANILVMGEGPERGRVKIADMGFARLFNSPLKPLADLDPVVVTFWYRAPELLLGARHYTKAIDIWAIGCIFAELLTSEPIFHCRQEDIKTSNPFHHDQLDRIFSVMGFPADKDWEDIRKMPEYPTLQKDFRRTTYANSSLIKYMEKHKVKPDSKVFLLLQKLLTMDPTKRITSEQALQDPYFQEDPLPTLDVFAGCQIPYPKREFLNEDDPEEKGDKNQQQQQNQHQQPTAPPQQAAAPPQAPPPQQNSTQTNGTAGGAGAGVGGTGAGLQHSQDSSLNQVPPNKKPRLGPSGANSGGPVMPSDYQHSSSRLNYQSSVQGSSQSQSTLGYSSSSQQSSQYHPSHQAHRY
T2 sequence (P24863 whole entry partner): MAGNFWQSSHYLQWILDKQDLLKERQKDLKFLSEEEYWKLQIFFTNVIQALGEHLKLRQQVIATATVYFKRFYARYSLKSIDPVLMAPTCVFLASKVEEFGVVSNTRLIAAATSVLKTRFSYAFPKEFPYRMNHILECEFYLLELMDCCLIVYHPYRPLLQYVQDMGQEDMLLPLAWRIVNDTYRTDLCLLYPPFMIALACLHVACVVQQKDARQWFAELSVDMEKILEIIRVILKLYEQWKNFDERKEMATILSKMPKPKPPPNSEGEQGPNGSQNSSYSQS
T1 sequence (P49336 whole entry): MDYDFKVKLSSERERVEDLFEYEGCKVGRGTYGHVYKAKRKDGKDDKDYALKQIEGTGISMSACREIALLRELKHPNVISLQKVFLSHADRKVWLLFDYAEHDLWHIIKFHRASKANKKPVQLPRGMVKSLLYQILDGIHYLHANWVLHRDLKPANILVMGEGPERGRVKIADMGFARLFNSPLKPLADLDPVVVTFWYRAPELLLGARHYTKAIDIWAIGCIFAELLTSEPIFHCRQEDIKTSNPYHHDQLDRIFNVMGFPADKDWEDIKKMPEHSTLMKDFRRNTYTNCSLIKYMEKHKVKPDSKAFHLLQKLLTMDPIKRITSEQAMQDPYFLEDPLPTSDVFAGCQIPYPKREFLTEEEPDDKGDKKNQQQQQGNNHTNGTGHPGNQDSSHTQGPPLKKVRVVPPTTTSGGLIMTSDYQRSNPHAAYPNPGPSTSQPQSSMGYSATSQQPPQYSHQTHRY
T1 sequence (P24863 whole entry partner): as the sequence (P24863 whole entry partner) above

With `CNc1ccc(Oc2sc(C(N)=O)c3c2-c2sncc2CC3)cn1` [Example 129, 8-((6-(Methylamino)pyridin-3-yl)oxy)-4,5-dihydrothieno[3,4-g][1,2] benzothiazole-6-carboxamide], the inhibition at 1 µM in assay [1] amounted to 66%. Moreover, the “Percent inhibition of CDK8 activity (%)” value in assay [2] stood at 100%. In assay [3], the “Percent inhibition of CDK19 activity (%)” value is reported as 98%.
The corresponding values for `CCOC(=O)c1ccc(Oc2sc(C(N)=O)c3c2-c2sncc2CC3)cn1` [Example 15, Ethyl 5-((6-carbamoyl-4,5-dihydrothieno[3,4-g][1,2]benzothiazol-8-yl)oxy)pyridine-2-carboxylate] are 64%, 100% and 102%.
Take `Cc1n[nH]c(C)c1Oc1sc(C(N)=O)c2c1-c1sncc1CC2` [Example 124, 8-((3,5-Dimethyl-1H-pyrazol-4-yl)oxy)-4,5-dihydrothieno[3,4-g][1,2] benzothiazole-6-carboxamide]: the inhibition at 1 µM in assay [1] is 70%. Moreover, the “Percent inhibition of CDK8 activity (%)” value in assay [2] is on record as 105%. Besides, the “Percent inhibition of CDK19 activity (%)” value in assay [3] came to 101%.
In the same order, the values of `CS(=O)(=O)c1ccc(Oc2sc(C(N)=O)c3c2-c2sncc2CC3)cc1` [Example 53, 8-(4-(Methylsulfonyl)phenoxy)-4,5-dihydrothieno[3,4-g][1,2]benzothiazole-6-carboxamide] are 61%, 100% and 99%.
Consider `Cc1nc(C(N)=O)ccc1Oc1sc(C(N)=O)c2c1-c1sncc1CC2` [Example 131, 8-((6-Carbamoyl-2-methylpyridin-3-yl)oxy)-4,5-dihydrothieno[3,4-g][1,2] benzothiazole-6-carboxamide], for which the inhibition at 1 µM in assay [1] came to 73%. Also, the “Percent inhibition of CDK8 activity (%)” value in assay [2] came to 101%. For the same compound, the “Percent inhibition of CDK19 activity (%)” value in assay [3] was 102%.
As to `Cc1ncccc1Oc1sc(C(=O)Nn2cccc2)c2c1-c1sncc1CC2` [Example 87, 8-((2-Methylpyridin-3-yl)oxy)-N-(1H-pyrrol-1-yl)-4,5-dihydrothieno [3,4-g][1,2]benzothiazole-6-carboxamide], the inhibition at 1 µM in assay [1] stood at 48%. In addition, the “Percent inhibition of CDK8 activity (%)” value in assay [2] was found to be 100%. Also, in assay [3], the “Percent inhibition of CDK19 activity (%)” value is reported as 100%.
As for `CS(=O)(=O)c1cc(Oc2sc(C(N)=O)c3c2-c2sncc2CC3)ccc1C#N` [Example 6, 8-(4-Cyano-3-(methylsulfonyl)phenoxy)-4,5-dihydrothieno[3,4-g][1,2]benzothiazole-6-carboxamide], the inhibition at 1 µM in assay [1] amounted to 46%. Further, in assay [2], the “Percent inhibition of CDK8 activity (%)” value was 89%. Moreover, in assay [3], the “Percent inhibition of CDK19 activity (%)” value was found to be 84%.
As to `N=C(N)c1ccc(Oc2sc(C(N)=O)c3c2-c2sncc2CC3)cn1` [Example 14, 8-((6-Carbamimidoylpyridin-3-yl)oxy)-4,5-dihydrothieno[3,4-g][1,2] benzothiazole-6-carboxamide], the inhibition at 1 µM in assay [1] is 65%. Moreover, in assay [2], the “Percent inhibition of CDK8 activity (%)” value came to 92%. In assay [3], the “Percent inhibition of CDK19 activity (%)” value came out at 97%.
As to `CCCS(=O)(=O)c1ccc(Oc2sc(C(N)=O)c3c2-c2sncc2CC3)cc1` [Example 5, 8-(4-(Propylsulfonyl)phenoxy)-4,5-dihydrothieno[3,4-g][1,2]benzothiazole-6-carboxamide], in assay [1], the inhibition at 1 µM is 63%. Also, the “Percent inhibition of CDK8 activity (%)” value in assay [2] amounted to 99%. In addition, the “Percent inhibition of CDK19 activity (%)” value in assay [3] came to 100%.
Regarding `CCC(=O)Nc1ccc(Oc2sc(C(N)=O)c3c2-c2sncc2CC3)c(C)n1` [Example 133, 8-((2-Methyl-6-(propionylamino)pyridin-3-yl)oxy)-4,5-dihydrothieno [3,4-g][1,2]benzothiazole-6-carboxamide], the inhibition at 1 µM in assay [1] came to 63%. Besides, the “Percent inhibition of CDK8 activity (%)” value in assay [2] stood at 110%. For the same compound, the “Percent inhibition of CDK19 activity (%)” value in assay [3] is reported as 101%.
For `CN(CC(C)(C)O)C(=O)c1ccc(Oc2sc(C(N)=O)c3c2-c2sncc2CC3)cn1` [Example 115, 8-((6-((2-Hydroxy-2-methylpropyl) (methyl)carbamoyl)pyridin-3-yl)oxy)-4,5-dihydrothieno[3,4-g][1,2] benzothiazole-6-carboxamide], in assay [1], the inhibition at 1 µM was 63%. Moreover, in assay [2], the “Percent inhibition of CDK8 activity (%)” value is 100%. Also, in assay [3], the “Percent inhibition of CDK19 activity (%)” value is recorded as 95%.
In the same order, the values of `NC(=O)c1sc(Oc2ccc(S(F)(F)(F)(F)F)cc2)c2c1CCc1cnsc1-2` [Example 89] are 54%, 102% and 99%.
As to `CN(C)C(=O)c1ccc(Oc2sc(C(N)=O)c3c2-c2sncc2CC3)cc1` [Example 4, 8-(4-(Dimethylcarbamoyl)phenoxy)-4,5-dihydrothieno[3,4-g][1,2] benzothiazole-6-carboxamide], the inhibition at 1 µM in assay [1] was 61%. The “Percent inhibition of CDK8 activity (%)” value in assay [2] was 97%. The “Percent inhibition of CDK19 activity (%)” value in assay [3] is 98%.
In the same order, the values of `NC(=O)c1sc(Oc2ccc(C(=O)NC3CC3)nc2)c2c1CCc1cnsc1-2` [Example 118, 8-((6-(Cyclopropylcarbamoyl)pyridin-3-yl)oxy)-4,5-dihydrothieno[3,4-g][1,2] benzothiazole-6-carboxamide] are 64%, 104% and 100%.
For `CC(=O)N(C)c1ccc(Oc2sc(C(N)=O)c3c2-c2sncc2CC3)c(C)n1` [Example 28, 8-((6-(Acetyl(methyl)amino)-2-methylpyridin-3-yl)oxy)-4,5-dihydrothieno[3,4-g][1,2]benzothiazole-6-carboxamide], in assay [1], the inhibition at 1 µM stood at 63%. For the same compound, the “Percent inhibition of CDK8 activity (%)” value in assay [2] came out at 101%. The “Percent inhibition of CDK19 activity (%)” value in assay [3] amounted to 99%.
The corresponding values for `CCOC(=O)Nc1ccc(Oc2sc(C(N)=O)c3c2-c2sncc2CC3)c(C)n1` [Example 136, Ethyl (5-((6-carbamoyl-4,5-dihydrothieno[3,4-g][1,2]benzothiazol-8-yl)oxy)-6-methylpyridin-2-yl) carbamate] are 66%, 107% and 102%.
Regarding `COCCNC(=O)c1ccc(Oc2sc(C(N)=O)c3c2-c2sncc2CC3)cn1` [Example 138, 8-((6-((2-Methoxyethyl)carbamoyl)pyridin-3-yl)oxy)-4,5-dihydrothieno[3,4-g][1,2]benzothiazole-6-carboxamide fumaric acid (1:1)], in assay [1] (1 µM), the “Percent inhibition of RPMI8226 cell growth (%)” value is 69%. Moreover, the “Percent inhibition of CDK8 activity (%)” value in assay [2] came to 103%. In assay [3], the “Percent inhibition of CDK19 activity (%)” value is listed as 100%.
As to `CON(C)C(=O)c1sc(Oc2cccnc2C)c2c1CCc1cnsc1-2` [Example 34, N-Methoxy-N-methyl-8-((2-methylpyridin-3-yl)oxy)-4,5-dihydrothieno[3,4-g][1,2]benzothiazole-6-carboxamide], the inhibition at 1 µM in assay [1] worked out at 50%. Besides, the “Percent inhibition of CDK8 activity (%)” value in assay [2] was 100%. For the same compound, the “Percent inhibition of CDK19 activity (%)” value in assay [3] stood at 98%.
Take `Cn1cc(Oc2sc(C(N)=O)c3c2-c2sncc2CC3)cn1` [Example 96, 8-((1-Methyl-1H-pyrazol-4-yl)oxy)-4,5-dihydrothieno[3,4-g][1,2] benzothiazole-6-carboxamide]: in assay [1], the inhibition at 1 µM is 69%. The “Percent inhibition of CDK8 activity (%)” value in assay [2] was found to be 110%. Moreover, the “Percent inhibition of CDK19 activity (%)” value in assay [3] worked out at 100%.
For the compound `Cc1ncccc1Oc1sc(C(=O)NO)c2c1-c1sncc1CC2` [Example 38, N-Hydroxy-8-((2-methylpyridin-3-yl)oxy)-4,5-dihydrothieno[3,4-g][1,2]benzothiazole-6-carboxamide], the inhibition at 1 µM in assay [1] was 67%. Further, the “Percent inhibition of CDK8 activity (%)” value in assay [2] was 97%. In assay [3], the “Percent inhibition of CDK19 activity (%)” value worked out at 100%.
The corresponding values for `COCCN(C)C(=O)c1ccc(Oc2sc(C(N)=O)c3c2-c2sncc2CC3)cc1` [Example 123] are 64%, 100% and 101%.
